Laboratory results taken from patent US8309718B2, “4-pyrazolyl-N-arylpyrimidin-2-amines and 4-pyrazolyl-N-heteroarylpyrimidin-2-amines as janus kinase inhibitors” (Incyte Corporation, priority 2007, dated 2012).

Target: T1, human JAK2 (Homo sapiens, UniProt O60674)
T1 construct: JAK2 (a.a. 828-1132); His tag (N); made in house; host or cells: insect cells (baculovirus)
Assay: In vitro JAK kinase assay (HTRF, phosphorylation of biotinylated peptide)
Type: biochemical
Settings: catalytic domain a.a. 828-1132, 30 μM ATP, 500 nM peptide, room temperature 1 hr; read-out: JAK-2 IC50
Experimental: Compounds herein were tested for inhibitory activity of JAK targets according to the following in vitro assay described in Park et al, Analytical Biochemistry 1999, 269, 94-104. The catalytic domains of human JAK1 (a.a. 837-1142), JAK2 (a.a. 828-1132) and JAK3 (a.a. 781-1124) with an N-terminal His tag were expressed using baculovirus in insect cells and purified. The catalytic activity of JAK1, JAK2 or JAK3 was assayed by measuring the phosphorylation of a biotinylated peptide. The phosphorylated peptide was detected by homogenous time resolved fluorescence (HTRF). IC50s of compounds were measured for each kinase in the reactions that contain the enzyme, ATP and 500 nM peptide in 50 mM Tris (pH 7.8) buffer with 100 mM NaCl, 5 mM DTT, and 0.1 mg/mL (0.01%) BSA. The ATP concentration in the reactions was 90 μM for JAK1, 30 μM for Jak2 and 3 μM for JAK3. Reactions were carried out at room temperature for 1 hr and then stopped with 20 μL 45 mM EDTA, 300 nM SA-APC, 6 nM Eu-Py20 in assay buffer (Perkin Elmer, Boston, Mass.). Binding to the Europium labeled antibody took place for 40 minutes and HTRF signal was measured on a Fusion plate reader (Perkin Elmer, Boston, Mass.). Certain of the above compounds were tested according to this assay.

T1 sequence (O60674 828-1132): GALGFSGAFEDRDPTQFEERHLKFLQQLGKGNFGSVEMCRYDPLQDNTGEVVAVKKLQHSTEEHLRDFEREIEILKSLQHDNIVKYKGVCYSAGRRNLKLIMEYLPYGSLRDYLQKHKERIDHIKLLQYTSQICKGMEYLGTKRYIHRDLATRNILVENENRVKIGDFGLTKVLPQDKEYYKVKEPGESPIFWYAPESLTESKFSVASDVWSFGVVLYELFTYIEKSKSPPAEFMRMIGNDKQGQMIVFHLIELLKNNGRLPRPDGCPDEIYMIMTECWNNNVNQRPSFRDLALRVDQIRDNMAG

IC50, < 100 nM:
COC[C@H]1CCCN1CC(=O)Nc1ccc(Nc2nccc(-c3cnn(C(CC#N)C4CCCC4)c3)n2)cc1 (mixture of isomers) [Example 209, N-(4-(4-(1-(2-cyano-1-cyclopentylethyl)-1H-pyrazol-4-yl)pyrimidin-2-ylamino)phenyl)-2-((R)-2-(methoxymethyl)pyrrolidin-1-yl)acetamide]
COCC(C)NCC(=O)Nc1ccc(Nc2nccc(-c3cnn(C(CC#N)C4CCCC4)c3)n2)cc1 (mixture of isomers) [Example 211, N-(4-(4-(1-(2-cyano-1-cyclopentylethyl)-1H-pyrazol-4-yl)pyrimidin-2-ylamino)phenyl)-2-(1-methoxypropan-2-ylamino)acetamide]
CC1(C)CCOC12CCN(C(=O)c1ccc(Nc3nccc(-c4cnn(C(CC#N)C5CCCC5)c4)n3)cc1)C2 (mixture of isomers) [Example 220, 3-cyclopentyl-3-(4-(2-(4-(4,4-dimethyl-1-oxa-7-azaspiro[4.4]nonane-7-carbonyl)phenylamino)pyrimidin-4-yl)-1H-pyrazol-1-yl)propanenitrile]
N#CCC(C1CCCC1)n1cc(-c2ccnc(Nc3ccc(C(=O)N4CC[C@H](C#N)C4)cc3)n2)cn1 (mixture of isomers) [Example 225, (3S)-1-(4-(4-(1-(2-cyano-1-cyclopentylethyl)-1H-pyrazol-4-yl)pyrimidin-2-ylamino)benzoyl)pyrrolidine-3-carbonitrile]
CO[C@H]1CCN(C(=O)c2ccc(Nc3nccc(-c4cnn(C(CC#N)C5CCCC5)c4)n3)cc2)C1 (mixture of isomers) [Example 226, 3-cyclopentyl-3-(4-(2-(4-((S)-3-methoxypyrrolidine-1-carbonyl)phenylamino)pyrimidin-4-yl)-1H-pyrazol-1-yl)propanenitrile]
N#CCC(C1CCCC1)n1cc(-c2ccnc(Nc3ccc(C(=O)N4CC[C@H](F)C4)cc3)n2)cn1 (mixture of isomers) [Example 229, 3-cyclopentyl-3-(4-(2-(4-((S)-3-fluoropyrrolidine-1-carbonyl)phenylamino)pyrimidin-4-yl)-1H-pyrazol-1-yl)propanenitrile]
CN(C)C1CCN(C(=O)c2ccc(Nc3nccc(-c4cnn(C(CC#N)C5CCCC5)c4)n3)cc2)C1 (mixture of isomers) [Example 230, 3-cyclopentyl-3-(4-(2-(4-(3-(dimethylamino)pyrrolidine-1-carbonyl)phenylamino)pyrimidin-4-yl)-1H-pyrazol-1-yl)propanenitrile]
N#CCC(C1CCCC1)n1cc(-c2ccnc(Nc3ccc(C(=O)NC4CCN(c5ccccn5)C4)cc3)n2)cn1 (mixture of isomers) [Example 232, 4-(4-(1-(2-cyano-1-cyclopentylethyl)-1H-pyrazol-4-yl)pyrimidin-2-ylamino)-N-(1-(pyridin-2-yl)pyrrolidin-3-yl)benzamide]
N#CCC(C1CCCC1)n1cc(-c2ccnc(Nc3ccc(C(=O)N4CCC(Oc5ccccn5)C4)cc3)n2)cn1 (mixture of isomers) [Example 233, 3-cyclopentyl-3-(4-(2-(4-(3-(pyridin-2-yloxy)pyrrolidine-1-carbonyl)phenylamino)pyrimidin-4-yl)-1H-pyrazol-1-yl)propanenitrile]
CC[C@H](NC(=O)c1ccc(Nc2nccc(-c3cnn(C(CC#N)C4CCCC4)c3)n2)cc1)C(=O)N(C)C (mixture of isomers) [Example 235, 4-(4-(1-(2-cyano-1-cyclopentylethyl)-1H-pyrazol-4-yl)pyrimidin-2-ylamino)-N—((S)-1-(dimethylamino)-1-oxobutan-2-yl)benzamide]
N#CCC(C1CCCC1)n1cc(-c2ccnc(Nc3cccc(NC(=O)CN4CC[C@@H](O)C4)c3)n2)cn1 (mixture of isomers) [Example 237, N-(3-(4-(1-(2-cyano-1-cyclopentylethyl)-1H-pyrazol-4-yl)pyrimidin-2-ylamino)phenyl)-2-((R)-3-hydroxypyrrolidin-1-yl)acetamide]
N#CCC(C1CC1)n1cc(-c2ccnc(Nc3ccc(C(=O)N4CC[C@@H](C#N)C4)cc3)n2)cn1 (mixture of isomers) [Example 264, (3R)-1-(4-(4-(1-(2-cyano-1-cyclopropylethyl)-1H-pyrazol-4-yl)pyrimidin-2-ylamino)benzoyl)pyrrolidine-3-carbonitrile]
CO[C@H]1CCN(C(=O)c2ccc(Nc3nccc(-c4cnn(C(CC#N)C5CC5)c4)n3)cc2)C1 (mixture of isomers) [Example 265, 3-cyclopropyl-3-(4-(2-(4-((S)-3-methoxypyrrolidine-1-carbonyl)phenylamino)pyrimidin-4-yl)-1H-pyrazol-1-yl)propanenitrile]
N#CCC(C1CC1)n1cc(-c2ccnc(Nc3ccc(C(=O)N4CC[C@@H](O)C4)cc3)n2)cn1 (mixture of isomers) [Example 266, 3-cyclopropyl-3-(4-(2-(4-((R)-3-hydroxypyrrolidine-1-carbonyl)phenylamino)pyrimidin-4-yl)-1H-pyrazol-1-yl)propanenitrile]
CC(=O)N[C@@H]1CCN(C(=O)c2ccc(Nc3nccc(-c4cnn(C(CC#N)C5CC5)c4)n3)cc2)C1 (mixture of isomers) [Example 268, N-((3R)-1-(4-(4-(1-(2-cyano-1-cyclopropylethyl)-1H-pyrazol-4-yl)pyrimidin-2-ylamino)benzoyl)pyrrolidin-3-yl)acetamide]
CN(C)C1CCN(C(=O)c2ccc(Nc3nccc(-c4cnn(C(CC#N)C5CC5)c4)n3)cc2)C1 (mixture of isomers) [Example 270, 3-cyclopropyl-3-(4-(2-(4-(3-(dimethylamino)pyrrolidine-1-carbonyl)phenylamino)pyrimidin-4-yl)-1H-pyrazol-1-yl)propanenitrile]
N#CCC(C1CC1)n1cc(-c2ccnc(Nc3ccc(C(=O)N4CC[C@H](F)C4)cc3)n2)cn1 (mixture of isomers) [Example 271, 3-cyclopropyl-3-(4-(2-(4-((S)-3-fluoropyrrolidine-1-carbonyl)phenylamino)pyrimidin-4-yl)-1H-pyrazol-1-yl)propanenitrile]
N#CCC(C1CCOCC1)n1cc(-c2ccnc(Nc3ccc(C(=O)N4CC[C@@H](O)C4)cc3)n2)cn1 (mixture of isomers) [Example 315, 3-(4-{2-[(4-{[(3R)-3-hydroxypyrrolidin-1-yl]carbonyl}phenyl)amino]pyrimidin-4-yl}-1H-pyrazol-1-yl)-3-(tetrahydro-2H-pyran-4-yl)propanenitrile]
CO[C@H]1CCN(C(=O)c2ccc(Nc3nccc(-c4cnn(C(CC#N)C5CCOCC5)c4)n3)cc2)C1 (mixture of isomers) [Example 316, 3-(4-{2-[(4-{[(3S)-3-methoxypyrrolidin-1-yl]carbonyl}phenyl)amino]pyrimidin-4-yl}-1H-pyrazol-1-yl)-3-(tetrahydro-2H-pyran-4-yl)propanenitrile]
N#CCC(C1CCOCC1)n1cc(-c2ccnc(Nc3ccc(C(=O)N4CC[C@H](C#N)C4)cc3)n2)cn1 (mixture of isomers) [Example 317, (3S)-1-{4-[(4-{1-[2-cyano-1-(tetrahydro-2H-pyran-4-yl)ethyl]-1H-pyrazol-4-yl}pyrimidin-2-yl)amino]benzoyl}pyrrolidine-3-carbonitrile]
